Data from patent US5352608A (priority 1992, dated 1994).
“Also recorded” adds a separate entry of the source. Like-named read-outs stand apart in the source and are kept apart here.

Assays:
[1] = tested on: Rhodobacter sphaeroides 2.4.1; assay type: cell-based
[2] = tested on: R. sphaeroides 2.4.1; assay type: cell-based, Rhodobacter sphaeroides
[3] = tested on: Rhodopseudomonas palustris 1e5; assay: Intrinsic HLR to TeO3^2- (MIC); assay type: cell-based
[4] = tested on: E. coli; details: exogenously supplied L-methionine; Scala and Williams; cited from earlier work
[5] = Table 4, photoheterotrophic, 2 mM PO4^3-, 10 W/m^2
[6] = Table 4, photoheterotrophic, SMM succinate, 10 W/m^2

Molecule | MIC Low-PO4^3- Medium [1] | MIC Standard Medium [1] | Resistance in words [1] | Gas evolution in words [2] | Reduction to elemental state [2] | further results
[O]=[Cr](=[O])=[O] [CrO3] | < 10 µg/mL | 20 µg/mL | – | – | – | MIC [1]: < 20 µg/mL
[O-][I+3]([O-])([O-])O [IO4^-] | – | – | resistance was shown | no gas evolution was observed | Neither IO4^-, SiO3^2-, nor SiO^42- was reduced to its elemental state | Decrease in resistance when extracellular phosphate reduced ten-fold [1]: three- to four-fold; Intrinsic resistance relative to γ-3 Proteobacteria [1]: twenty-fold
O=[Te](=O)([O-])[O-].[K+].[K+] [K2 TeO4] | 500 µg/mL | 500 µg/mL | High level resistance | Copious gas evolution | – | Relative toxicity [1]: SeO4^2- >TeO4^2- >TeO3^2- >SeO3^2- >Rh2 O3.5H2 O; Intrinsic resistance relative to E. coli [3]: 40 times; Appearance of cells / metal deposit [2]: intracellular accumulation of a dense metal deposit
[K+].[O]=[Mn](=[O])(=[O])[O-] [KMnO4] | < 10 µg/mL | 20 µg/mL | – | – | – | MIC [1]: < 20 µg/mL
N[C@@H](CS)C(=O)O [L-cysteine, reference compound] | – | – | – | – | – | Effect of medium supplement on HLR [1]: solely responsible for the increased sensitivity to TeO3^2-
CSCC[C@H](N)C(=O)O [L-methionine, reference compound] | – | – | – | – | – | Effect of medium supplement on HLR [1]: no affect on HLR to TeO3^2-; TeO3^2- resistance enhancement by L-methionine [4]: two-fold
[O]=[Mo](=[O])=[O] [MoO3] | sat'd sol'n | sat'd sol'n | shows resistance | – | – | Effect on cell growth as saturated solution [1]: did not affect cell growth
[NH4+].[O]=[V](=[O])[O-] [NH4 VO3] | sat'd sol'n | sat'd sol'n | shows resistance | – | – | Effect on cell growth as saturated solution [1]: did not affect cell growth
[Na+].[Na+].[O]=[Cr](=[O])([O-])[O-] [Na2 CrO4] | 20 µg/mL | 10 µg/mL | – | – | – | MIC [1]: < 20 µg/mL
[Na+].[Na+].[O]=[Mo](=[O])([O-])[O-] [Na2 MoO4] | – | – | resistance was shown | no gas was evolved | not reduced to their elemental states | Effect of extracellular phosphate on resistance [1]: unaffected by extracellular phosphate levels; MIC Low-PO4^3- Medium [1, 5]: 1500 µg/mL; MIC Standard Medium [1, 6]: 1400 µg/mL
O=S([O-])[O-].[Na+].[Na+] [Na2 SO3] | 500 µg/mL | 600 µg/mL | resistance was shown | no gas was evolved | not reduced to their elemental states | Effect of extracellular phosphate on resistance [1]: unaffected by extracellular phosphate levels
O=[Se]([O-])[O-].[Na+].[Na+] [Na2 SeO3] | 500 µg/mL | 800 µg/mL | High level resistance | – | – | Relative toxicity [1]: SeO4^2- >TeO4^2- >TeO3^2- >SeO3^2- >Rh2 O3.5H2 O; Appearance of cells / metal deposit [2]: bright red in color
O=[Se](=O)([O-])[O-].[Na+].[Na+] [Na2 SeO4] | 100 µg/mL | 150 µg/mL | High level resistance | – | – | Relative toxicity [1]: SeO4^2- >TeO4^2- >TeO3^2- >SeO3^2- >Rh2 O3.5H2 O; Appearance of cells / metal deposit [2]: bright red in color
O=[Si]([O-])[O-].[Na+].[Na+] [Na2 SiO3] | 100 µg/mL | 400 µg/mL | resistance was shown | no gas evolution was observed | Neither IO4^-, SiO3^2-, nor SiO^42- was reduced to its elemental state | Decrease in resistance when extracellular phosphate reduced ten-fold [1]: three- to four-fold; Intrinsic resistance relative to γ-3 Proteobacteria [1]: twenty-fold
[Na+].[Na+].[O]=[W](=[O])([O-])[O-] [Na2 WO4] | – | – | resistance was shown | no gas was evolved | not reduced to their elemental states | Effect of extracellular phosphate on resistance [1]: unaffected by extracellular phosphate levels; MIC Low-PO4^3- Medium [1, 5]: 1600 µg/mL; MIC Standard Medium [1, 6]: 1600 µg/mL
O.O.O.O.O.[O]=[Rh][O][Rh]=[O] [Rh2 O3.5H2 O, rhodium sesquioxide] | sat'd sol'n | sat'd sol'n | High level resistance; also recorded: shows resistance | – | – | Effect on cell growth as saturated solution [1]: did not affect cell growth; Relative toxicity [1]: SeO4^2- >TeO4^2- >TeO3^2- >SeO3^2- >Rh2 O3.5H2 O; Appearance of cells / metal deposit [2]: grayish bronze
[O-2].[O-2].[O-2].[Sb+3].[Sb+3] [Sb2 O3] | sat,d sol'n | sat'd sol'n | shows resistance | – | – | Effect on cell growth as saturated solution [1]: did not affect cell growth
[O]=[Sn]=[O] [SnO2] | sat'd sol'n | sat'd sol'n | shows resistance | – | – | Effect on cell growth as saturated solution [1]: did not affect cell growth
N[C@@H](CSSC[C@H](N)C(=O)O)C(=O)O [cystine, reference compound] | – | – | – | – | – | Effect of medium supplement on HLR [1]: Neither cystine, glutathione nor thioglycollate, however, decreased HLR
N[C@@H](CCC(=O)N[C@@H](CS)C(=O)NCC(=O)O)C(=O)O [glutathione, reference compound] | – | – | – | – | – | Effect of medium supplement on HLR [1]: Neither cystine, glutathione nor thioglycollate, however, decreased HLR
O=C(O)CS [thioglycollate, reference compound] | – | – | – | – | – | Effect of medium supplement on HLR [1]: Neither cystine, glutathione nor thioglycollate, however, decreased HLR
Na2 HAsO4 | – | – | resistance was shown | no gas was evolved | not reduced to their elemental states | Effect of extracellular phosphate on resistance [1]: unaffected by extracellular phosphate levels; MIC Low-PO4^3- Medium [1, 5]: 1600 µg/mL; MIC Standard Medium [1, 6]: 1500 µg/mL
Na2 SiO4 | 100 µg/mL | 300 µg/mL | resistance was shown | no gas evolution was observed | Neither IO4^-, SiO3^2-, nor SiO^42- was reduced to its elemental state | Decrease in resistance when extracellular phosphate reduced ten-fold [1]: three- to four-fold; Intrinsic resistance relative to γ-3 Proteobacteria [1]: twenty-fold
Na2 SnO4 | 800 µg/mL | 800 µg/mL | resistance was shown | no gas was evolved | not reduced to their elemental states | Effect of extracellular phosphate on resistance [1]: unaffected by extracellular phosphate levels
NaSiO4 | 150 µg/mL | 400 µg/mL | – | – | – | –
